# From patent US6586424B2, “Tyrosine kinase inhibitors” (Merck & Co., Inc., priority 1999, dated 2003)
# Structures can show the parent of a compound that is named as a salt.
row,melting point,SMILES
1,> 250 °C,"FC(F)(F)c1ccc(-c2cnc(Nc3ccccn3)s2)cc1 [Compound 5-16, Pyridin-2-yl-[5-(4-trifluoromethyl-phenyl)-thiazol-2-yl]-amine]"
2,> 250 °C,"Fc1cccc(-c2cnc(Nc3ccccn3)s2)c1 [Compound 5-19, [5-(3-Fluoro-phenyl)-thiazol-2-yl]-pyridin-2-yl-amine]"
3,> 250 °C,"Clc1ccc(-c2cnc(Nc3ccccn3)s2)cc1 [Compound 5-23, [5-(4-Chloro-phenyl)-thiazol-2-yl]-pyridin-2-yl-amine]"
4,> 250 °C,"Clc1ccc(-c2cnc(Nc3ccccn3)s2)cc1Cl [Compound 5-24, [5-(3,4-dichloro-phenyl)-thiazol-2-yl]-pyridin-2-yl-amine]"
5,227 to 228 °C,"Fc1ccccc1-c1cnc(Nc2ccccn2)s1 [Compound 5-18, [5-(2-Fluoro-phenyl)-thiazol-2-yl]-pyridin-2-yl-amine]"
6,213 to 215 °C,"Clc1ccccc1-c1cnc(Nc2ccccn2)s1 [Compound 5-21, [5-(2-Chloro-phenyl)-thiazol-2-yl]-pyridin-2-yl-amine]"
7,242 to 244 °C,"FC(F)(F)c1cccc(-c2cnc(Nc3ccccn3)s2)c1 [Compound 5-15, Pyridin-2-yl-[5-(3-trifluoromethyl-phenyl)-thiazol-2-yl]-amine]"
8,239 to 240 °C,"Fc1ccc(-c2cnc(Nc3ccccn3)s2)cc1 [Compound 5-20, [5-(4-Fluoro-phenyl)-thiazol-2-yl]-pyridin-2-yl-amine]"

# More lines, now with the values behind:
row,SMILES,melting point
1,"Cc1ccccc1-c1cnc(Nc2ccccn2)s1 [Compound 5-6, Pyridin-2-yl-(5-o-tolyl-thiazol-2-yl)-amine]",155 to 160 °C
2,"Brc1ccc(Nc2ncc(-c3ccccc3)s2)nc1 (as salt: HBr) [Compound 4-4, (5-Bromo-pyridin-2-yl)-(5-phenyl-thiazol-2-yl)-amine]",> 220 °C
3,"Cc1cccc(-c2cnc(Nc3ccccn3)s2)c1 [Compound 5-7, Pyridin-2-yl-(5-m-tolyl-thiazol-2-yl)-amine]",204 to 205 °C
4,"COC(=O)c1cccc(Nc2ncc(-c3ccccc3)s2)n1 [Compound 4-6, 6-(5-Phenyl-thiazol-2-ylamino)-pyridine-2-carboxylic Acid Methyl Ester]",231 to 232 °C
5,"FC(F)(F)c1ccccc1-c1cnc(Nc2ccccn2)s1 [Compound 5-14, Pyridin-2-yl[5-(2-trifluoromethyl-phenyl)-thiazol-2-yl]-amine]",195 to 203 °C
6,"CCc1cnc(Nc2ccccn2)s1 [Compound 4-18, (5-Ethyl-thiazol-2-yl)-pyridin-2-yl-amine]",113 °C
7,"c1ccc(Nc2ncc(-c3cccc4ccccc34)s2)nc1 [Compound 5-9, (5-Naphthalen-1-yl-thiazol-2-yl)-pyridin-2-yl-amine]",223.5 to 226 °C
